Source: patent US7897645B2, “Herpesvirus-derived therapeutic agent for pain” (Taiho Pharmaceutical Co., Ltd., priority 2005, dated 2011)

Experiments:
post herpetic neuralgia [1] = assay: Visual Analogue Scale (VAS) evaluation of pain in herpes zoster / post herpetic neuralgia patients (case reports); assay type: in vivo, human; details: for VAS evaluation of pain: mecobalamin 1500 μg/day and sodium loxoprofen 180 mg/day oral together, after 2 weeks
Method: The present invention will be described below in more detail with reference to examples and test examples. However, the invention is not limited by these examples. The sharp pain in examples was evaluated by the Visual Analogue Scale evaluation (hereinafter abbreviated to “VAS evaluation”), in which the grade of pain of each patient is expressed by himself or herself on a 100 mm straight line. In VAS evaluation, the highest score is 10 points (100 mm), and the point becomes smaller according to the decrease of the pain. (refer to Anesth Analog 1993, 77, 1041-1047 etc.)

post herpetic neuralgia [2] = assay: Clinical course of zoster-associated pain in patients, in words (case reports); assay type: in vivo, human; details: for effect on continued pain after herpes zoster: Example 6: person, diclofenac sodium suppository 1 to 2 times per day in addition to morphine hydrochloride 30 mg/day
Method: A person. They were diagnosed as right face herpes zoster. Anti-virus agent was administered by drops for 5 days. Since dull pain remained at the same region thereafter, oral administration of mecobalamin of 1500 μg/day and sodium loxoprofen of 180 mg/day was started after the consultation. After administration for 2 weeks, VAS evaluation of pain dropped to 1 point, and the administration of sodium loxoprofen stopped with administration of mecobalamin maintained. Mecobalamin was further administered, and although VAS evaluations were 1 to 3 points for about 3 months, sense of incongruity and spasmodic sharp pain of neuralgia after herpes zoster continued, and therefore oral administration of a 100 mg capsule of IPD 3 times per day was started in the same manner as in Example 1 with administration of mecobalamin maintained. After 1 week of the administration of suplatast tosylate, the post herpetic neuralgia disappeared, and VAS evaluation became 0 point. […] Then administration was stopped.
A person. Painful rashes appeared from right chest to the back, and they were diagnosed as herpes zoster. Anti-virus agent was administered by dropping for 1 week, but the pain continued. Diclofenac sodium suppository was used by 1 to 2 times per day in addition to administration of morphine hydrochloride 30 mg/day, but both of them were no effect, and further nerve block treatment was also no effect. After 6 months of the consultation (7 points at VAS evaluation), oral administration of a 100 mg capsule of IPD 3 times per day was started in the same manner as in Example 1, the post herpetic neuralgia decreased to 5 points at VAS evaluation by the treatment for 3 weeks, although the administration of morphine was invalid.

CCOCC(O)COc1ccc(NC(=O)CC[S+](C)C)cc1.Cc1ccc(S(=O)(=O)[O-])cc1 (racemic) [suplatast tosylate, (±)-[2-[4-(3-ethoxy-2-hydroxypropoxy)phenylcarbamoyl]ethyl]dimethylsulfonium p-toluenesulfonate]
VAS evaluation (post herpetic neuralgia [1]; Example 1: person, PHN, 100 mg capsule of IPD 3 times per day oral, after 3 days, 5 points before): 0 point | VAS evaluation (post herpetic neuralgia [1]; Example 2: person, PHN, 100 mg capsule of IPD 3 times per day oral, after 1.5 months, 7 points before): 2 points | VAS evaluation (post herpetic neuralgia [1]; Example 3: person, PHN, 100 mg capsule of IPD 3 times per day oral, mecobalamin maintained, after 1 week, 1 to 3 points before): 0 point | VAS evaluation (post herpetic neuralgia [1]; Example 4: person, PHN, 100 mg capsule of IPD 3 times per day oral, after 1 month, 0.5 to 1 point before): 0.1 to 0.2 point | VAS evaluation (post herpetic neuralgia [1]; Example 5: person, PHN, 100 mg capsule of IPD 3 times per day oral, by continuation of the administration): 0.7 point | VAS evaluation (post herpetic neuralgia [1]; Example 5: person, PHN, 100 mg capsule of IPD 3 times per day oral, first decrease, 5 points before): 1 point | VAS evaluation (post herpetic neuralgia [1]; Example 6: person, PHN, 100 mg capsule of IPD 3 times per day oral, treatment for 3 weeks, 7 points before): 5 points | symptoms on continued administration (post herpetic neuralgia [2]; Example 3: person, oral suplatast tosylate and mecobalamin continued for further about 1 month): no symptom was observed

O=C(O)Cc1ccccc1Nc1c(Cl)cccc1Cl [Diclofenac sodium]
effect on continued pain after herpes zoster (post herpetic neuralgia [2]): no effect

C/C1=C2/[N-][C@H]([C@H](CC(N)=O)[C@@]2(C)CCC(=O)NC[C@@H](C)OP(=O)([O-])O[C@H]2[C@@H](O)[C@@H](n3cnc4cc(C)c(C)cc43)O[C@@H]2CO)[C@]2(C)N=C(/C(C)=C3N=C(/C=C4N=C1[C@@H](CCC(N)=O)C\4(C)C)[C@@H](CCC(N)=O)[C@]\3(C)CC(N)=O)[C@@H](CCC(N)=O)[C@]2(C)CC(N)=O.[CH3-].[Co+3] [mecobalamin]
VAS evaluation (post herpetic neuralgia [1]; Example 1: person, mecobalamin 1500 μg/day oral continued, neuralgia not changed for 3 years after consultation): 5 points | VAS evaluation (post herpetic neuralgia [1]; Example 2: person, mecobalamin 1500 μg/day continued, PHN did not change for 8 months after consultation): 7 points | VAS evaluation of pain (post herpetic neuralgia [1]; Example 3: person): 1 point | VAS evaluations (post herpetic neuralgia [1]; Example 3: person, mecobalamin alone further administered, for about 3 months): 1 to 3 points | VAS evaluation (post herpetic neuralgia [1]; Example 4: person, mecobalamin 1500 μg/day for 1.5 months, 5 points before): 0.5 to 1 point

CN1CC[C@]23c4c5ccc(O)c4O[C@H]2[C@@H](O)C=C[C@H]3[C@H]1C5.Cl [morphine hydrochloride]
effect on continued pain after herpes zoster (post herpetic neuralgia [2]): no effect

CC(C(=O)[O-])c1ccc(CC2CCCC2=O)cc1.[Na+] (stereo not shown) [sodium loxoprofen]
VAS evaluation of pain (post herpetic neuralgia [1]; Example 3: person): 1 point
